What is called Solubility is the dissolved amount per volume that the medium holds. Read a low Solubility as a poorly soluble substance. The term Log P denotes a log measure of how a compound divides between an organic and an aqueous phase. The low end stands for a more hydrophilic compound, the high end for a more lipophilic compound.

These results are taken from patent US20260365677A1, “NEW CONTRAST AGENTS FOR USE IN DIAGNOSTIC IMAGING” (Bayer Aktiengesellschaft, priority 2022, published 2026).

For data set [1] the following is noted: 1.5 T, 37 °C, from Rohrer et al., cited from earlier work; for r1 plasma: bovine plasma instead of human plasma.
Data set [2] can be described thus: Complex stability (transmetallation) with Zn2+ in phosphate buffer. As to conditions: over 72 hours, 2.5 mM Zn^2+, 26 mM phosphate buffer, 37 °C. The format is physicochemical. On the procedure: The used method is described elsewhere (Laurent S et al., Stability of MRI paramagnetic contrast media: a proton relaxometric protocol for transmetallation assessment. Invest Radiol. 2001 February; 36(2):115-22). […] If test compounds are instable under these conditions, transmetallation during this test would lead to the formation of the Zn^2+ complex of the test item, while Gd^3+ is released and precipitated as highly insoluble GdPO4.
After 3d of incubation T1 relaxation time was observed.

In data set [3] the test system is multidrug resistance-associated protein 2 (MRP2). As to conditions: via MRP2 (cMOAT); cited from earlier work.
Data set [4] concerns organic anion-transporting polypeptides (OATP1B1, OATP1B3). The note with it: via OATP1B1, OATP1B3; cited from earlier work.
In another data set the test system is plasma proteins. As to conditions: cited from earlier work.
In the next data set the test system is focal liver lesions. As to conditions: patients with healthy liver or oncologic/cirrhotic liver patients; cited from earlier work.
A short description of data set [5]: Exploratory water solubility in 10 mM Tris-HCl buffer, pH 7.4. As to conditions: aqueous buffer (10 mM Tris-HCl), 20 °C. The format is physicochemical. As for the experimental part:
The exploratory water solubility of the compounds is determined at room temperature (20 °C) in 0.5 mL buffer solution (10 mM Tris-HCl, pH 7.4) in the microcentrifuge tubes (Eppendorf, 2.0 mL safe-lock caps). The solid compounds were added stepwise to the buffer solution. More substance is added once all the suspended material is dissolved until an equilibrium between undissolved and dissolved substance is reached. The suspension was mixed using a shaker (Heidolph Reax 2000) and treated 5 min in an ultrasound bath (Bandelin, Sonorex Super RK255H). The Gadolinium concentration of the test substance in the clear solution is measured by ICP-MS.

Another data set concerns dentate nucleus. As to conditions: after repeated administration; cited from earlier work.
The conditions of data set [6]: of the administered dose; cited from earlier work.
The nature of data set [7]: Partition coefficient (log P butanol/buffer). The format is physicochemical. The note with it: 50 mM Tris-HCl, pH 7.4, 10 μM, room temperature. On the procedure: The partition coefficient P (log P=log(Cbutanol/Cbuffer)) was determined in buffered aqueous solution (10 μM of compound in 0.5 mL 50 mM Tris-HCl saturated with Butanol, pH 7.4) and 1-butanol 1+1 and the mixture was shaken for 2 h at room temperature (n=3). The Gd-concentrations in each phase. CObutano, and Cbuffer were measured by ICP-MS (The Chemistry of Contrast Agents in Medical Magnetic Resonance Imaging” 2nd Ed. Merbach A S, Helm L, Toth E, eds. Hoboken, NJ: Wiley 2013).

On to `O=C([O-])CN1CCN(CC(=O)[O-])CCN([C@H](CO)[C@H](O)CO)CCN(CC(=O)[O-])CC1.[Gd+3]` (racemic) [RC3, gadobutrol], for which, in data set [1], the r1 plasma was 5.2 L/mmol/s and the r1 water is 3.3 L/mmol/s. The “Transmetallation stability (in words)” value in [2] is “stable”.
As for `CCOc1ccc(CC(CN(CCN(CC(=O)[O-])CC(=O)[O-])CC(=O)[O-])N(CC(=O)[O-])CC(=O)[O-])cc1.[Gd+3].[Na+].[Na+]` (centres unmarked) [RC1, gadoxetate disodium], the “excretion into the bile canaliculi” value in data set [3] is on record as “primarily excreted into the bile canaliculi via the multidrug resistance-associated protein 2”. For the same compound, the uptake by hepatocytes result in [4] is “mainly taken up by hepatocytes via organic anion-transporting polypeptides (OATP1B1, OATP1B3)”. Also, in data set [1], the r1 plasma was 6.9 L/mmol/s and the r1 water was 4.7 L/mmol/s. Also, the protein binding entry with plasma proteins was “approximately 10%”. In addition, the “detection and identification of focal liver lesions by liver MRI” value in the data set on focal liver lesions was “able to detect and identify focal liver lesions with high specificity and sensitivity”. This compound also yielded a Solubility in data set [5] above 250 mM. The “signal intensity in the dentate nucleus” value with dentate nucleus is reported as “increased signal intensity in the dentate nucleus”. Also, the “secretion/excretion into the bile” value in data set [6] is “up to 50%”. For the same compound, in [7], the lipophilicity (Log P) is reported as −2.12.
With `O=C([O-])CN(CCN(CC(=O)[O-])CC(=O)[O-])CCN(CC(=O)[O-])C(COCc1ccccc1)C(=O)[O-].[Gd+3].[H+].[H+]` (centres unmarked) [RC2, gadobenic acid], in [1], the r1 plasma was 6.3 L/mmol/s and the r1 water was 4.0 L/mmol/s. Moreover, the protein binding result in the data set with plasma proteins is given as “approximately 10%”. Besides, the “Log P” value in data set [7] was −2.07.
